Test results reported in publication PMC7996098, “High-Level Extracellular Expression of a New β-N-Acetylglucosaminidase in Escherichia coli for Producing GlcNAc” (Frontiers in Microbiology, 2021).

Biological target: T1, BlNagZ (Bacillus licheniformis, UniProt Q65P58)
T1 construct: gene ybbD; pET26b, PelB signal peptide (excised on secretion) fused to ORF amplified from its start codon; His-tag purified; E. coli BL21(DE3) supernatant
Assay: p-nitrophenol release, absorbance […] nm
Format: biochemical
Conditions: substrate of the Km not given, taken from the standard assay; pH 5.5, 60 °C (standard assay), 50 mM phosphate; read-out: Km (μ mol/L)

T1 sequence (Q65P58 entry or part of it): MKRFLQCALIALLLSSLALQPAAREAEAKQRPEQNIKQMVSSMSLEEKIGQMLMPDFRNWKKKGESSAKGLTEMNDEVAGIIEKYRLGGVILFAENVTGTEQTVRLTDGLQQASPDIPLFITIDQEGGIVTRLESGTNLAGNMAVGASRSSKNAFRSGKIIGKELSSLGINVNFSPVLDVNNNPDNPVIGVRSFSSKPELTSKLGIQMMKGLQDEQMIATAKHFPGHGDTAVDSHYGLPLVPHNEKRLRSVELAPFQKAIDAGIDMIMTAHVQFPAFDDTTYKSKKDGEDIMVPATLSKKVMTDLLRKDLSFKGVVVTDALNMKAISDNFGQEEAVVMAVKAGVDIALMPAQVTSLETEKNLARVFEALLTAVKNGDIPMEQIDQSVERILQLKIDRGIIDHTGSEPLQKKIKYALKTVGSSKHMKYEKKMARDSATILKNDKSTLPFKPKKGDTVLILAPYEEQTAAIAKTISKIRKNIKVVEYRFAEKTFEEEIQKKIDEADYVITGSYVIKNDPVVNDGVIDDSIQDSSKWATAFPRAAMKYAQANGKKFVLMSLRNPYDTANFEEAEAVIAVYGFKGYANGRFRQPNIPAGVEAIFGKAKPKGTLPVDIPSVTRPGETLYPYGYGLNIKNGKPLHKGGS

CC(=O)N[C@H]1[C@H](Oc2ccc([N+](=O)[O-])cc2)O[C@H](CO)[C@@H](O)[C@@H]1O [pNP-β-D-GlcNAc]
Km: 0.000932 mol/L
